Key:
cyclooxygenase = assay: Cyclooxygenase inhibiting effect; format: biochemical; conditions: seminal vasicular gland microsomes, 14C-arachidonic acid, prostaglandin E2 formation
Protocol: (1) Cyclooxygenase inhibiting effect
This assay was carried out by the method described in Russell J. Taylor et al., Biochem. Pharmacol., 25, 2479-2484 (1976).
^14 C-arachidonic acid was reacted with seminal vasicular gland microsomes and the test drugs at various concentrations over a predetermined period of time and the obtained prostaglandin E2 was separated by thin layer chromatography. The radioactivity of prostaglandin E2 was determined by liquid scintillation counter. The IC50 values were calculated by the comparison with the radioactivity of the control.

5-Lipoxygenase = target: T1, 5-Lipoxygenase (Cavia porcellus, UniProt A0A286X958); assay: 5-Lipoxygenase inhibiting activity; format: biochemical; conditions: cytosol fraction of guinea pig polymorphonuclear leucocytes, 14C-arachidonic acid, 5-hydroxyeicosatetraenoic acid formation
T1 construct: the polymorphonuclear leucocytes were collected and the cytosol fraction was obtained as an enzyme source; endogenous in cells; host or cells: guinea pig peritoneal polymorphonuclear leucocytes, cytosol fraction
T1 sequence (A0A286X958 1-674): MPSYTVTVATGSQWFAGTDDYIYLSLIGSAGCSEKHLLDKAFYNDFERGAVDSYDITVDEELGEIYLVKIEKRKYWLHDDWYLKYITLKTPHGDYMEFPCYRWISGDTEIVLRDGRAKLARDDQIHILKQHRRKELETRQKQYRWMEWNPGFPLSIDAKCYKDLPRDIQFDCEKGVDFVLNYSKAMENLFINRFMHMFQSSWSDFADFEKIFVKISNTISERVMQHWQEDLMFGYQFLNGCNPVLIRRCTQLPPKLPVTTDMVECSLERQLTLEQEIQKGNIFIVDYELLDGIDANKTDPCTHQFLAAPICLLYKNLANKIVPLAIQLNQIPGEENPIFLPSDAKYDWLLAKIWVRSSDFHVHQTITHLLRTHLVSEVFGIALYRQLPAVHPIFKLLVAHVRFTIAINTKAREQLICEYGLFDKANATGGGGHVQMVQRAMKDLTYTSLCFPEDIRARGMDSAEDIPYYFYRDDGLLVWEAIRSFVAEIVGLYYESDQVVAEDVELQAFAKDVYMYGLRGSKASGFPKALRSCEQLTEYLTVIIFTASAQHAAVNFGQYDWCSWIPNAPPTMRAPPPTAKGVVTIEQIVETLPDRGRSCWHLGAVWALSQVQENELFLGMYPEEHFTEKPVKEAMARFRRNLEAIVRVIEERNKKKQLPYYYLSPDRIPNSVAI
Protocol: (2) 5-Lipoxygenase inhibiting activity
This assay was carried out by the method described in Kenkichi Ochi et al., J. Biol. Chem., 258, 5754-5758 (1983).
Casein was injected into the abdominal cavity of a guinea pig, and the polymorphonuclear leucocytes were collected and the cytosol fraction was obtained as an enzyme source. ^14 C-arachidonic acid was reacted with the enzyme and the test drug at various concentrations over a predetermined period of time. The obtained 5-hydroxyeicosatetraenoic acid was separated by thin layer chromatography and the radioactivity was determined. The IC^50 values were calculated by the comparison with the radioactivity of the control.

IC50 (cyclooxygenase)	IC50 (5-Lipoxygenase)	Structure (SMILES)
140 nM	55 nM	COc1ccc(-c2noc(CCCC(=O)/C=C/c3ccc(O)c(O)c3)c2-c2ccc(OC)cc2)cc1 [Compound 38]
290 nM	230 nM	COc1ccc(-c2noc(CNC(=O)/C=C/C=C/c3cc(OC)c(O)c(OC)c3)c2-c2ccc(OC)cc2)cc1 [Compound 16]
15 nM	240 nM	COc1ccc(-c2noc(CCNC(=O)/C=C/C=C/c3ccc(O)c(OC)c3)c2-c2ccc(OC)cc2)cc1 [Compound 12]
2600 nM	110 nM	Cc1ccc(-c2noc(CCNC(=O)/C=C/c3ccc(O)c(O)c3)c2-c2ccc(C)cc2)cc1 [Compound 7]
100 nM	670 nM	COc1ccc(-c2noc(CCNC(=O)/C=C/c3cc(OC)c(O)c(OC)c3)c2-c2ccc(OC)cc2)cc1 [Compound 10]
50 nM	110 nM	COc1ccc(-c2noc(CNC(=O)/C=C/C=C/c3ccc(O)c(OC)c3)c2-c2ccc(OC)cc2)cc1 [Compound 15]
240 nM	3030 nM	COc1ccc(-c2noc(CCCC(=O)/C=C/c3cc(C)c(O)c(C)c3)c2-c2ccc(OC)cc2)cc1 [Compound 40]
1500 nM	86 nM	COc1ccc(-c2c(-c3ccc(Cl)cc3)noc2CCNC(=O)/C=C/c2ccc(O)c(O)c2)cc1 [Compound 8]
100 nM	113 nM	COc1ccc(-c2noc(CCNC(=O)/C=C/c3ccc(O)c(O)c3)c2-c2ccc(OC)cc2)cc1 [Compound 5]
66 nM	62 nM	COc1ccc(-c2noc(CCOC(=O)/C=C/c3ccc(O)c(O)c3)c2-c2ccc(OC)cc2)cc1 [Compound 4]
2600 nM	100 nM	O=C(/C=C/c1ccc(O)c(O)c1)NCCc1onc(-c2ccccc2)c1-c1ccccc1 [Compound 6]
280 nM	390 nM	COc1ccc(-c2noc(C(=O)/C=C/C=C/c3ccc(O)c(OC)c3)c2-c2ccc(OC)cc2)cc1 [Compound 46]
< 10 nM	130 nM	COc1ccc(-c2noc(CCNC(=O)/C=C/C=C/c3c(OC)cc(O)cc3OC)c2-c2ccc(OC)cc2)cc1 [Compound 14]
30 nM	630 nM	COc1ccc(-c2noc(CCNC(=S)/C=C/c3ccc(O)c(OC)c3)c2-c2ccc(OC)cc2)cc1 [Compound 48]
1310 nM	180 nM	COc1ccc(-c2noc(CCCC(=O)/C=C/c3cc(OC)c(O)c(OC)c3)c2-c2ccc(OC)cc2)cc1 [Compound 39]
10 nM	50 nM	COc1ccc(-c2noc(CCNC(=O)/C=C/C=C/c3cc(OC)c(O)c(OC)c3)c2-c2ccc(OC)cc2)cc1 [Compound 13]

— patent US5399577A, “Isoxazole derivatives and salts thereof” (Taiho Pharmaceutical Co., Ltd., priority 1991, dated 1995)
